Eleven compounds from ChEMBL document CHEMBL1153013, “Bio-active compounds from Euphorbia cornigera Boiss” (2009) can be followed below.

Converted amounts (≈) assume the structure as drawn.

This assay deals with Biomphalaria glabrata. The experiment in a line: Molluscicidal activity against Biomphalaria glabrata after 24 hrs. The format is functional.
What is called LC50 is the concentration that kills 50% of the test population. `C/C=C(\C)C(=O)O[C@@H]1C(COC(=O)c2ccccc2NC(=O)c2ccccc2N)=C[C@@H]2C(=O)[C@]3(C=C(C)[C@H](OC(C)=O)[C@@]13O)[C@H](C)C[C@@H]1[C@H]2C1(C)C` came in with an LC50 of 0.0155 µg/mL (≈ 0.0218 µM).

In the case of `CC(=O)OCC1=C[C@@H]2C(=O)[C@]3(C=C(C)[C@H](OC(=O)c4ccccc4NC(=O)c4ccccc4N)[C@@]3(O)[C@@H]1O)[C@H](C)C[C@@H]1[C@H]2C1(C)C`, the LC50 is 0.0143 µg/mL (≈ 0.0227 µM).

As to `C/C=C(\C)C(=O)OCC1=C[C@@H]2C(=O)[C@]3(C=C(C)[C@H](OC(C)=O)[C@@]3(O)[C@@H]1OC(=O)c1ccccc1NC(=O)c1ccccc1N)[C@H](C)C[C@@H]1[C@H]2C1(C)C`, the LC50 came out at 0.0145 µg/mL (≈ 0.0204 µM). The LC50 values of the last two compounds are within 1.5-fold of each other.

`C/C=C(\C)C(=O)O[C@@H]1C(COC(C)=O)=C[C@@H]2C(=O)[C@]3(C=C(C)[C@H](OC(=O)c4ccccc4NC(=O)c4ccccc4N)[C@@]13O)[C@H](C)C[C@@H]1[C@H]2C1(C)C`: the median lethal concentration (LC50) was 0.0135 µg/mL (≈ 0.019 µM). This LC50 and that of the compound before are within 1.5-fold of each other.

Take `C/C=C(\C)C(=O)O[C@H]1C(C)=C[C@]23C(=O)[C@@H](C=C(COC(C)=O)[C@@H](OC(=O)c4ccccc4NC(=O)c4ccccc4N)[C@]12O)[C@H]1[C@@H](C[C@H]3C)C1(C)C`: the LC50 amounted to 0.0754 µg/mL (≈ 0.106 µM).

In turn, `CC(=O)OCC1=C[C@@H]2C(=O)[C@]3(C=C(C)[C@H](OC(=O)c4ccccc4NC(=O)c4ccccc4N)[C@@]3(O)[C@@H]1OC(C)=O)[C@H](C)C[C@@H]1[C@H]2C1(C)C` gave an LC50 of 0.0114 µg/mL (≈ 0.017 µM). Compared with the last compound, the LC50 is about 6.6-fold lower.

`CC(=O)O[C@H]1C(C)=C[C@]23C(=O)[C@@H](C=C(COC(=O)c4ccccc4NC(=O)c4ccccc4N)[C@@H](O)[C@]12O)[C@H]1[C@@H](C[C@H]3C)C1(C)C` displayed an LC50 of 0.0192 µg/mL (≈ 0.0305 µM).

`CC(=O)OCC1=C[C@@H]2C(=O)[C@]3(C=C(C)[C@H](OC(C)=O)[C@@]3(O)[C@@H]1OC(=O)c1ccccc1NC(=O)c1ccccc1N)[C@H](C)C[C@@H]1[C@H]2C1(C)C` came in with an LC50 of 0.0183 µg/mL (≈ 0.0273 µM).

As to `C/C=C(\C)C(=O)OCC1=C[C@@H]2C(=O)[C@]3(C=C(C)[C@H](OC(=O)c4ccccc4NC(=O)c4ccccc4N)[C@@]3(O)[C@@H]1OC(C)=O)[C@H](C)C[C@@H]1[C@H]2C1(C)C`, the LC50 was determined as 0.0125 µg/mL (≈ 0.0176 µM).

Compound `C/C=C(\C)C(=O)O[C@H]1C(C)=C[C@]23C(=O)[C@@H](C=C(COC(=O)c4ccccc4NC(=O)c4ccccc4N)[C@@H](OC(C)=O)[C@]12O)[C@H]1[C@@H](C[C@H]3C)C1(C)C` showed an LC50 of 0.0615 µg/mL (≈ 0.0865 µM). Against the preceding compound, the LC50 is about 4.9-fold higher.

The compound `O=C(Nc1ccc([N+](=O)[O-])cc1Cl)c1cc(Cl)ccc1O` [NICLOSAMIDE] showed an LC50 of 0.025 µg/mL (≈ 0.0764 µM).
